PubChem BioAssay AID248 (DTP/NCI, 2004)
Toxic doses and inconclusive results are not listed. Cut-off read from the data, not from the text of the source: active = T/C of 150% or more; inactive = T/C below 125%. Peptide text beside a SMILES is read from it. * marks the point of attachment. Boc = CC(C)(C)OC(=O)*; Bn = c1ccc(C*)cc1

Test system: L1210 leukemia ip in BDF1 mice, survival T/C
Assay: NCI In Vivo Anticancer Drug Screen. Data for tumor model L1210 Leukemia (intraperitoneal) in B6D2F1 (BDF1) mice
Conditions: endpoint: mean survival time, higher = longer survival
Procedure, shortened: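 Survival endpoint. Drug-treated group vs vehicle group, expressed as T divided by C. Tumor passaged by transplantation.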

[1] = dose: 100.0 mg/kg/injection, schedule: Q04DX003 (ip), vehicle: Klucel (hydroxypropylcellulose) (HPC)
[2] = dose: 200.0 mg/kg/injection, schedule: Q04DX003 (ip), vehicle: Klucel (hydroxypropylcellulose) (HPC)
[3] = dose: 400.0 mg/kg/injection, schedule: Q04DX003 (ip), vehicle: Klucel (hydroxypropylcellulose) (HPC)
[4] = dose: 100.0 mg/kg/injection, schedule: Q01DX009 (ip), vehicle: Klucel (hydroxypropylcellulose) (HPC)
[5] = dose: 200.0 mg/kg/injection, schedule: Q01DX009 (ip), vehicle: Klucel (hydroxypropylcellulose) (HPC)
[6] = dose: 400.0 mg/kg/injection, schedule: Q01DX009 (ip), vehicle: Klucel (hydroxypropylcellulose) (HPC)
[7] = dose: 100.0 mg/kg/injection, schedule: Q01DX001 (ip), vehicle: carboxymethylcellulose (CMC)
[8] = dose: 200.0 mg/kg/injection, schedule: Q01DX001 (ip), vehicle: carboxymethylcellulose (CMC)
[9] = dose: 400.0 mg/kg/injection, schedule: Q01DX001 (ip), vehicle: carboxymethylcellulose (CMC)
[10] = dose: 100.0 mg/kg/injection, schedule: Q01DX001 (ip), vehicle: saline
[11] = dose: 200.0 mg/kg/injection, schedule: Q01DX001 (ip), vehicle: saline
[12] = dose: 400.0 mg/kg/injection, schedule: Q01DX001 (ip), vehicle: saline
[13] = dose: 100.0 mg/kg/injection, schedule: Q01DX001 (ip), vehicle: Klucel (hydroxypropylcellulose) (HPC)
[14] = dose: 75.0 mg/kg/injection, schedule: Q01DX001 (ip), vehicle: saline
[15] = dose: 150.0 mg/kg/injection, schedule: Q01DX001 (ip), vehicle: saline
[16] = dose: 300.0 mg/kg/injection, schedule: Q01DX001 (ip), vehicle: saline
[17] = dose: 25.0 mg/kg/injection, schedule: Q04DX002 (ip), vehicle: Klucel (hydroxypropylcellulose) (HPC)
[18] = dose: 100.0 mg/kg/injection, schedule: Q04DX002 (ip), vehicle: Klucel (hydroxypropylcellulose) (HPC)
[19] = dose: 100.0 mg/kg/injection, schedule: Q01DX009 (ip), vehicle: saline with Tween-80
[20] = dose: 200.0 mg/kg/injection, schedule: Q01DX009 (ip), vehicle: saline with Tween-80
[21] = dose: 50.0 mg/kg/injection, schedule: Q01DX009 (ip), vehicle: saline
[22] = dose: 100.0 mg/kg/injection, schedule: Q01DX009 (ip), vehicle: saline
[23] = dose: 200.0 mg/kg/injection, schedule: Q01DX009 (ip), vehicle: saline

Measured: T/C

CC(=O)COC(=O)c1ccc(N(C)CC(C)=O)cc1
inactive: [1] 95 % of control | [2] 86 % of control | [3] 93 % of control

Nc1ccc2[nH]c3ccccc3c2c1
inactive: [4] 95 % of control | [1] 104 % of control | [5] 95 % of control | [2] 91 % of control | [6] 92 % of control | [3] 94 % of control

CCOC(=O)/C=C(\C#N)CC(=O)OCC
inactive: dose: 50.0 mg/kg/injection, schedule: Q01DX005 (ip), vehicle: saline 102 % of control | dose: 100.0 mg/kg/injection, schedule: Q01DX005 (ip), vehicle: saline 102 % of control | dose: 200.0 mg/kg/injection, schedule: Q01DX005 (ip), vehicle: saline 96 % of control | dose: 400.0 mg/kg/injection, schedule: Q01DX005 (ip), vehicle: saline 94 % of control

Cc1ccc(Cl)c(C2c3ccccc3Cc3ccc4ccccc4c32)c1 (stereo not drawn)
inactive: dose: 50.0 mg/kg/injection, schedule: Q01DX001 (ip), vehicle: carboxymethylcellulose (CMC) 101 % of control | [7] 101 % of control | [8] 95 % of control | [9] 98 % of control

CC(C)OP(=O)(NO)OC(C)C
inactive: [10] 97 % of control | [11] 92 % of control | [12] 90 % of control

CCOC(=O)C(CCN(C)Cc1ccccc1)C(=O)OCC
inactive: [4] 97 % of control | [5] 100 % of control | [6] 106 % of control

CC(=O)Nc1ccc2c(c1)Cc1cccc(NC(C)=O)c1-2
inactive: dose: 25.0 mg/kg/injection, schedule: Q01DX009 (ip), vehicle: Klucel (hydroxypropylcellulose) (HPC) 95 % of control | dose: 50.0 mg/kg/injection, schedule: Q01DX009 (ip), vehicle: Klucel (hydroxypropylcellulose) (HPC) 103 % of control | [4] 103 % of control

CC(C)NC(=O)CN=NNc1nc[nH]c1C(N)=O
inactive: dose: 25.0 mg/kg/injection, schedule: Q01DX001 (ip), vehicle: Klucel (hydroxypropylcellulose) (HPC) 95 % of control | dose: 25.0 mg/kg/injection, schedule: Q04DX003 (ip), vehicle: Klucel (hydroxypropylcellulose) (HPC) 99 % of control | dose: 50.0 mg/kg/injection, schedule: Q01DX001 (ip), vehicle: Klucel (hydroxypropylcellulose) (HPC) 100 % of control | dose: 50.0 mg/kg/injection, schedule: Q04DX003 (ip), vehicle: Klucel (hydroxypropylcellulose) (HPC) 94 % of control | [13] 97 % of control | [1] 101 % of control

Cc1ccc(S(=O)(=O)OCC23CCC2(COS(=O)(=O)c2ccc(C)cc2)COC3)cc1 (stereo not drawn)
inactive: [14] 96 % of control | dose: 75.0 mg/kg/injection, schedule: Q01DX009 (ip), vehicle: saline 94 % of control | [15] 93 % of control | [16] 95 % of control | dose: 300.0 mg/kg/injection, schedule: Q01DX009 (ip), vehicle: saline 89 % of control

CC(=O)OC1C(=O)C(C)(C)CSCC1(C)C (stereo not drawn)
inactive: [4] 103 % of control | [5] 103 % of control | [6] 105 % of control

O=C(Nc1cccc(C(F)(F)F)c1)c1ccc(Cl)c(Cl)c1
inactive: dose: 100.0 mg/kg/injection, schedule: Q01DX009 (ip), vehicle: gum acacia 108 % of control | dose: 100.0 mg/kg/injection, schedule: Q04DX003 (ip), vehicle: gum acacia 100 % of control | dose: 200.0 mg/kg/injection, schedule: Q04DX003 (ip), vehicle: gum acacia 100 % of control | dose: 400.0 mg/kg/injection, schedule: Q01DX009 (ip), vehicle: gum acacia 96 % of control | dose: 400.0 mg/kg/injection, schedule: Q04DX003 (ip), vehicle: gum acacia 95 % of control

CCOC(=O)C1(C)CCN(C)C1=O (stereo not drawn)
inactive: [10] 96 % of control | [11] 96 % of control | [12] 96 % of control

CC(C)(O)CNCCCN
inactive: [14] 96 % of control | [15] 94 % of control | [16] 102 % of control

O=[N+]([O-])c1ccc(C2CCCCC2)cc1
inactive: [17] 109 % of control | dose: 50.0 mg/kg/injection, schedule: Q04DX002 (ip), vehicle: Klucel (hydroxypropylcellulose) (HPC) 109 % of control | [18] 102 % of control

O=C1c2cccc(Cl)c2C(=O)c2c(NCCO)cccc21
inactive: [13] 96 % of control | dose: 200.0 mg/kg/injection, schedule: Q01DX001 (ip), vehicle: Klucel (hydroxypropylcellulose) (HPC) 101 % of control | dose: 400.0 mg/kg/injection, schedule: Q01DX001 (ip), vehicle: Klucel (hydroxypropylcellulose) (HPC) 97 % of control

O=C(O)c1cccc([N+](=O)[O-])c1C(=O)O
inactive: [19] 95 % of control | [18] 98 % of control | [20] 95 % of control | dose: 200.0 mg/kg/injection, schedule: Q04DX002 (ip), vehicle: Klucel (hydroxypropylcellulose) (HPC) 88 % of control | dose: 400.0 mg/kg/injection, schedule: Q04DX002 (ip), vehicle: Klucel (hydroxypropylcellulose) (HPC) 88 % of control

C[N+]1=C(C(=O)c2ccc(O)cc2)c2ccc(O)cc2CC1
inactive: dose: 50.0 mg/kg/injection, schedule: Q01DX001 (ip), vehicle: saline 107 % of control | [10] 106 % of control | [11] 119 % of control

NCCc1cnc[nH]1
inactive: [21] 89 % of control | [22] 106 % of control | [23] 89 % of control

N#CCN1CCCCC1
inactive: dose: 25.0 mg/kg/injection, schedule: Q01DX009 (ip), vehicle: saline 115 % of control | [21] 112 % of control

OCCC(c1ccc(Cl)cc1)N1CCCCC1 (stereo not drawn)
inactive: dose: 100.0 mg/kg/injection, schedule: Q01DX001 (ip), vehicle: other 104 % of control

Nc1cccc(OCCOc2cccc([N+](=O)[O-])c2)c1
inactive: [10] 101 % of control | [11] 95 % of control | [12] 98 % of control

CC/C(=C(\CC)c1ccc(OC)cc1)c1ccc(OC)cc1
inactive: dose: 50.0 mg/kg/injection, schedule: Q01DX009 (ip), vehicle: saline with Tween-80 100 % of control | [19] 89 % of control | [20] 89 % of control | dose: 200.0 mg/kg/injection, schedule: Q04DX003 (ip), vehicle: saline 87 % of control

C=C(Br)S(=O)(=O)CC
inactive: dose: 6.25 mg/kg/injection, schedule: Q04DX002 (ip), vehicle: saline 101 % of control | dose: 12.5 mg/kg/injection, schedule: Q04DX002 (ip), vehicle: saline 90 % of control | [17] 101 % of control | dose: 25.0 mg/kg/injection, schedule: Q04DX002 (ip), vehicle: saline 111 % of control

CNC(=O)Nc1ncn[nH]1
inactive: dose: 75.0 mg/kg/injection, schedule: Q01DX001 (ip), vehicle: carboxymethylcellulose (CMC) 103 % of control | dose: 150.0 mg/kg/injection, schedule: Q01DX001 (ip), vehicle: carboxymethylcellulose (CMC) 98 % of control | dose: 300.0 mg/kg/injection, schedule: Q01DX001 (ip), vehicle: carboxymethylcellulose (CMC) 104 % of control

COC(=O)CNC(=O)C(Cc1ccc(OCc2ccccc2)cc1)NC(=O)C(CO)NC(=O)OC(C)(C)C (stereo not drawn) (Boc-Ser-Tyr(Bn)-Gly-OMe; configuration not given here)
inactive: [19] 102 % of control | [20] 98 % of control | dose: 400.0 mg/kg/injection, schedule: Q01DX009 (ip), vehicle: saline with Tween-80 88 % of control

O=[N+]([O-])c1ccc(N/N=C/C#Cc2ccccc2)c([N+](=O)[O-])c1
inactive: dose: 50.0 mg/kg/injection, schedule: Q04DX002 (ip), vehicle: saline with Tween-80 88 % of control

CC(O)C(O)C(O)C(O)/C=N/O (stereo not drawn)
inactive: [1] 100 % of control | [2] 97 % of control | [3] 102 % of control

O=C1COC2CCCCC2O1 (stereo not drawn)
inactive: [7] 108 % of control | [8] 101 % of control | [9] 106 % of control

COc1cc(NC2CCCCC2O)c2nc(-c3ccc(Cl)cc3)ccc2c1 (stereo not drawn)
inactive: [22] 98 % of control | [23] 90 % of control | dose: 400.0 mg/kg/injection, schedule: Q01DX009 (ip), vehicle: saline 86 % of control
